According to ChEMBL document CHEMBL1142351, “Synthesis and characterization of 8-ethynyl-1,3-dihydro-benzo[b][1,4]diazepin-2-one derivatives: part 2. New potent non-competitive metabotropic glutamate receptor 2/3 antagonists” (Bioorg Med Chem Lett, 2008):
pIC50: −log10 of the molar value. Activity calls are given as the source filed them. No cut-off for these calls is given here.

Legend:
[1] = target: T1, Metabotropic glutamate receptor 2 (Rattus norvegicus, UniProt P31421); experiment: Displacement of [3H]LY354740 from rat recombinant mGluR2 expressed in CHO cells; format: cell-based
[2] = target: T1, Metabotropic glutamate receptor 2; experiment: Antagonist activity at rat mGluR2 assessed as effect on (1S,3R)-ACPD-induced inhibition of forskolin-stimulated cAMP production; format: functional
[3] = target: Metabotropic glutamate receptor 3 (Rattus norvegicus) (UniProt P31422); experiment: Antagonist activity at rat mGluR3 transiently transfected in CHO cells expressing GIRKs assessed as inhibition of glutamate-induced reversible inward K+ current; format: functional, cell-based
[4] = target: Metabotropic glutamate receptor 8 (Rattus norvegicus, UniProt P70579); experiment: (§1) Displacement of [3H]-L-AP4 from rat mGluR8
[5] = Binding affinity to GABAA
[6] = Binding affinity to NMDA
[7] = target: Metabotropic glutamate receptor 2 (Rattus norvegicus) (UniProt P31421); experiment: Antagonist activity at rat mGluR2 transiently transfected in CHO cells expressing GIRKs assessed as inhibition of glutamate-induced reversible inward K+ current; format: functional, cell-based
[8] = target: T1, Metabotropic glutamate receptor 2; experiment: Displacement of [3H]LY354740 from rat mGluR2
Rattus norvegicus [9] = organism: Rattus norvegicus; experiment: Antagonist activity at mGluR group 2 in rat hippocampus assessed as reversal of LY-354740-mediated inhibition of fEPSPs in dentate gyrus; format: functional, tissue-based
[10] = target: Metabotropic glutamate receptor 8 (Rattus norvegicus) (UniProt P70579); experiment: as §1
Rattus norvegicus [11] = organism: Rattus norvegicus; experiment: Antagonist activity at mGluR group 2 in rat hippocampus assessed as blockade of LY-354740-mediated inhibition of fEPSPs after 3 hrs; format: functional, tissue-based

T1 sequence (P31421 whole entry): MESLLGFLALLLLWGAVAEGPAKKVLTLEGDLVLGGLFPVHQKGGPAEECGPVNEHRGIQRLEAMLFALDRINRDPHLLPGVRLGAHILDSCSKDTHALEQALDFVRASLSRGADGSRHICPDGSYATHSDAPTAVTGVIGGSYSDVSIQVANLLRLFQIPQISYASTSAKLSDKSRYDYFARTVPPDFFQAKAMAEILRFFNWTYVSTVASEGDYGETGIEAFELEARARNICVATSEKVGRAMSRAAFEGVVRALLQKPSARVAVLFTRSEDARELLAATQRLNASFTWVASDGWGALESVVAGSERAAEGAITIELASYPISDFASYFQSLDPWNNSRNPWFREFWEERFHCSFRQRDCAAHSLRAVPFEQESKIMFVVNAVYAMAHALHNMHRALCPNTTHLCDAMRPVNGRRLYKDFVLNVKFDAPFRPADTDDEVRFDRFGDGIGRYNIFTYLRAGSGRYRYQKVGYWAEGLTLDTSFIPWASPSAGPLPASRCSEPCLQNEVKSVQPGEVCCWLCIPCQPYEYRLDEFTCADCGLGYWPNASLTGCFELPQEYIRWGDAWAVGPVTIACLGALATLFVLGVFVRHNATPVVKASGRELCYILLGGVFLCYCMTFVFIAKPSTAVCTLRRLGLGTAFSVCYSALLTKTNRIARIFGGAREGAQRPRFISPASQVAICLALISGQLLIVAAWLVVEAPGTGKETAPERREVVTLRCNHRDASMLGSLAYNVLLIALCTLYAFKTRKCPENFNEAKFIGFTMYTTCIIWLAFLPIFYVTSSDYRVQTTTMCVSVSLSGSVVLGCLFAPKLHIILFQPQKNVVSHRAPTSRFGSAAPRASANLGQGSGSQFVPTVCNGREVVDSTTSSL
Metabotropic glutamate receptor 2 (Rattus norvegicus), sequence (P31421 19-872 limits assumed): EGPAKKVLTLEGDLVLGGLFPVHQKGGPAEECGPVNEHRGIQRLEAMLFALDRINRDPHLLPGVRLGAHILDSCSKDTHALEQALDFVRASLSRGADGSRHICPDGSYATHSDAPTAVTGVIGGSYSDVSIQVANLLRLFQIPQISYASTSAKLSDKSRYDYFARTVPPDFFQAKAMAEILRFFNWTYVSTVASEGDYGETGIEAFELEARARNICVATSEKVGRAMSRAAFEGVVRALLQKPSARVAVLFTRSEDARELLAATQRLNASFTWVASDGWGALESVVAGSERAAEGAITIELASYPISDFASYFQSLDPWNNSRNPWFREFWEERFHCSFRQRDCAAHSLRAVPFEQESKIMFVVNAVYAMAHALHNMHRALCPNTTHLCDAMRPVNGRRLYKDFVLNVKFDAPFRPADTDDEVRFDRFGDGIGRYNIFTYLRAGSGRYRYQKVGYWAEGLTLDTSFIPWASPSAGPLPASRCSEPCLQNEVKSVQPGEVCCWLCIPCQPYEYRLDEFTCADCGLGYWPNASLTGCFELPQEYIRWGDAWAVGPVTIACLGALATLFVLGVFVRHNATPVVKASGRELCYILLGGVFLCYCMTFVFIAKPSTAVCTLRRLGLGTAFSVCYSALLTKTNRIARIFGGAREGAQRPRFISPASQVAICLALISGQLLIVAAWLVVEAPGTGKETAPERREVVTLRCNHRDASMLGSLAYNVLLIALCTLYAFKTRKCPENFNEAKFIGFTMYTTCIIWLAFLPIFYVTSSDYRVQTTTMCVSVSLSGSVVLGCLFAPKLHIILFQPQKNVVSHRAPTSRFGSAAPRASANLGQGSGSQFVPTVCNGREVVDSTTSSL
Metabotropic glutamate receptor 3 (Rattus norvegicus), sequence (P31422 23-879 limits assumed): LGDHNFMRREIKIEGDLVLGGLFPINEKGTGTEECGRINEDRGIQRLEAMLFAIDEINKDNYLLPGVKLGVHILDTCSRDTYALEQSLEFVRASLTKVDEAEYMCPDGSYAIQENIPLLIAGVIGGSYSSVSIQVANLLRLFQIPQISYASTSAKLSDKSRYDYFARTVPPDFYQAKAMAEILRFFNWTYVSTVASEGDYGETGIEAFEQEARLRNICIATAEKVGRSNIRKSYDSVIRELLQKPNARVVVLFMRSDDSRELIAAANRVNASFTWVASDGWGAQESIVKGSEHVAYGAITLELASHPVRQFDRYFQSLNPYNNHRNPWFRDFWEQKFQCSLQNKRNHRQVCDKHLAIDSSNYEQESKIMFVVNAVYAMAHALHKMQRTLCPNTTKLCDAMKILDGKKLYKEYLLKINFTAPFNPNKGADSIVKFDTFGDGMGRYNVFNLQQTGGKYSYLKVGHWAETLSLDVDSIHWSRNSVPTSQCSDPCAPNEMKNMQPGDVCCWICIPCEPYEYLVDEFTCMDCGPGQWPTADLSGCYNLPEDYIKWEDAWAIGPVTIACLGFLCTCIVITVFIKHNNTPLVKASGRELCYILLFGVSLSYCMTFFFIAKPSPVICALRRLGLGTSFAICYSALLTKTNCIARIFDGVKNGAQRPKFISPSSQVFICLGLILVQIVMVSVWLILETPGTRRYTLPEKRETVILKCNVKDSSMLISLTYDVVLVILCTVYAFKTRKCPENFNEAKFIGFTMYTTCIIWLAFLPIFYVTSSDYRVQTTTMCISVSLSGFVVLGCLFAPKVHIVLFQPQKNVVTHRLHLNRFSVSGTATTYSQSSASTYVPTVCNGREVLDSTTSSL
Metabotropic glutamate receptor 8, sequence (P70579 whole entry): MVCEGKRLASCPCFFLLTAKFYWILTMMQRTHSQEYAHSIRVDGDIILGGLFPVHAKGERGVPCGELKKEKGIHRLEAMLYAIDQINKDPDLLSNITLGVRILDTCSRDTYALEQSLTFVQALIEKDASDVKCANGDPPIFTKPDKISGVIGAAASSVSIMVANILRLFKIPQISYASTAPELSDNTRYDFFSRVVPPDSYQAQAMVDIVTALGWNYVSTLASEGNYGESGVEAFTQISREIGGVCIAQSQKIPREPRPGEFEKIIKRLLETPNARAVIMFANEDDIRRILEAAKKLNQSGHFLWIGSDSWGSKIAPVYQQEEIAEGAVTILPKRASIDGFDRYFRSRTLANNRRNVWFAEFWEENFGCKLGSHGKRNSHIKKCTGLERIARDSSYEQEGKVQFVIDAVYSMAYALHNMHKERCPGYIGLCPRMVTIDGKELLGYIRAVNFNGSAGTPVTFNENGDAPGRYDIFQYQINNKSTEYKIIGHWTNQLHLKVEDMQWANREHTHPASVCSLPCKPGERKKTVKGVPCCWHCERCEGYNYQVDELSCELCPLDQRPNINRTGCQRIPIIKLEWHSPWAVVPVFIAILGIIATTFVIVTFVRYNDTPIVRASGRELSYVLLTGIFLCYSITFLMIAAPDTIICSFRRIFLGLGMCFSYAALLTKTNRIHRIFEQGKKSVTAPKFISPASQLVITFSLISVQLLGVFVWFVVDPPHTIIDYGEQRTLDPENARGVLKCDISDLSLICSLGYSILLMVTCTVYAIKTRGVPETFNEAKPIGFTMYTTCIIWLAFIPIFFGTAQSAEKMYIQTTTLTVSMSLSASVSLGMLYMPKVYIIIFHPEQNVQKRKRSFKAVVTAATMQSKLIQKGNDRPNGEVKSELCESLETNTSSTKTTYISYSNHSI
Metabotropic glutamate receptor 8 (Rattus norvegicus), sequence (P70579 whole entry): as above

pIC50 [1]	pIC50 [2]	Structure (SMILES)	other results
7.01	–	Cc1cn(-c2cccc(C3=Nc4ccc(C#Cc5ccc(F)cc5)cc4NC(=O)C3)c2)cn1	–
7.70	7.77	O=C1CC(c2cccc(-n3ccnn3)c2)=Nc2cc(O)c(C#Cc3ccc(F)cc3)cc2N1	Activity [3]: Active; pIC50 [4]: 5.30; Activity [5]: inactive; Activity [6]: inactive; Activity [7]: Active
7.74	7.89	N#CCOc1cc2c(cc1C#Cc1ccccc1)NC(=O)CC(c1cccc(-n3ccnc3)c1)=N2	–
7.70	7.80	O=C1CC(c2cccc(-n3ccnc3)c2)=Nc2ccc(C#Cc3ccccc3F)cc2N1	–
7.89	8.00	O=C1CC(c2cccc(-n3ccnc3)c2)=Nc2ccc(C#Cc3ccccc3)cc2N1	–
7.19	–	O=C1CC(c2cccc(-n3ccnc3)c2)=Nc2cc(OCCO)c(C#Cc3ccccc3)cc2N1	–
7.01	–	O=C1CC(c2cccc(-n3cncn3)c2)=Nc2ccc(C#Cc3ccc(F)cc3)cc2N1	–
8.05	8.05	O=C1CC(c2cccc(-n3ccnc3)c2)=Nc2ccc(C#Cc3ccc(F)cc3)cc2N1	–
7.44	–	CN(C)c1cc2c(cc1C#Cc1ccccc1)NC(=O)CC(c1cccc(-n3ccnn3)c1)=N2	–
6.42	–	O=C1CC(c2cccc(-n3nncc3CO)c2)=Nc2cc(O)c(C#Cc3ccc(F)cc3)cc2N1	–
–	–	Cc1ccc2c(c1)NC(=O)CC(c1ccccc1)=N2	pIC50 [8]: 5.19
6.85	–	CN(CCO)c1cc2c(cc1C#Cc1ccc(F)cc1)NC(=O)CC(c1cccc(-n3ccnc3)c1)=N2	–
8.22	7.92	O=C1CC(c2cccc(-n3ccnn3)c2)=Nc2ccc(C#Cc3ccc(F)cc3)cc2N1	–
7.59	7.96	O=C1CC(c2cccc(-n3ccnc3)c2)=Nc2cc(O)c(C#Cc3ccc(F)cc3)cc2N1	Activity [3]: Active; Activity (Rattus norvegicus [9]): Active; Activity [10]: inactive; Activity [5]: inactive; Activity [6]: inactive; Activity [7]: Active; Activity (Rattus norvegicus [11]): Active
7.34	–	O=C1CC(c2cccc(-n3ccnc3)c2)=Nc2cc(OCCO)c(C#Cc3ccc(F)cc3)cc2N1	–
6.14	–	Cn1ccnc1-c1cccc(C2=Nc3ccc(C#Cc4ccccc4)cc3NC(=O)C2)c1	–
7.64	7.82	COCCOc1cc2c(cc1C#Cc1ccccc1)NC(=O)CC(c1cccc(-n3ccnc3)c1)=N2	–
6.77	–	Cc1cn(-c2cccc(C3=Nc4ccc(C#Cc5ccccc5)cc4NC(=O)C3)c2)c(C)n1	–
–	7.77	N#Cc1cccc(C2=Nc3ccc(C#Cc4ccccc4)cc3NC(=O)C2)c1	–
7.14	–	O=C1CC(c2cccc(-n3cnnn3)c2)=Nc2ccc(C#Cc3ccc(F)cc3)cc2N1	–
